Columns and labels:
[1] = tested on: fabp1; experiment: Real-time quantitative PCR of PLsis marker gene expression; type: cell-based, human; conditions: HepG2 cells, 24 hr exposure, relative value, control group = 1.0, GAPDH internal standard, n=3
Experimental: (§1) Using RNeasy Mini Kit (QIAGEN), total RNA was purified from the cells, and cDNA was synthesized in a 100 μL system using TaqMan Reverse Transcription Reagents (PE Applied Biosystems).
(§2) As the primer for glyceraldehyde-3-phosphoric acid dehydrogenase (GAPDH) and VIC labeled probe, those attached to TaqMan GAPDH Control Reagents (PE Applied Biosystems) were used.
(§3) Using 100 μL of the reaction mixture containing 5 μL of cDNA (1×TaqMan Universal PCR Master Mix (PE Applied Biosystems), 200 nM forward primer, 200 nM reverse primer and 200 nM TaqMan probe), 40 cycles of (1 cycle=95° C., 15 sec; 60° C., 1 min) PCR were performed. PCR and fluorescence detection were performed using ABI PRISM Sequence Detector 7000 (PE Applied Biosystems). As the internal standard, GAPDH was used to amend the measurement values. For the determination of significant difference, t-test was used (n=3).
(§4) For each test compound, the expression variation rate of 12 genes each relative to the control group was determined.

[2] = tested on: kiaa1001; experiment: as above; type: cell-based, human; conditions: HepG2 cells, 24 hr exposure, relative value, control group = 1.0, GAPDH internal standard, n=3
Experimental: as §1, §2, §3, §4

[3] = tested on: nr0b2; experiment: as above; type: cell-based, human; conditions: HepG2 cells, 24 hr exposure, relative value, control group = 1.0, GAPDH internal standard, n=3
Experimental: as §1, §2, §3, §4

[4] = tested on: asah1; experiment: as above; type: cell-based, human; conditions: HepG2 cells, 24 hr exposure, relative value, control group = 1.0, GAPDH internal standard, n=3
Experimental: as §1, §2, §3, §4

[5] = tested on: flj22362; experiment: as above; type: cell-based, human; conditions: HepG2 cells, 24 hr exposure, relative value, control group = 1.0, GAPDH internal standard, n=3
Experimental: as §1, §2, §3, §4

[6] = tested on: hpn; experiment: as above; type: cell-based, human; conditions: HepG2 cells, 24 hr exposure, relative value, control group = 1.0, GAPDH internal standard, n=3
Experimental: as §1, §2, §3, §4

[7] = tested on: depp; experiment: as above; type: cell-based, human; conditions: HepG2 cells, 24 hr exposure, relative value, control group = 1.0, GAPDH internal standard, n=3
Experimental: as §1, §2, §3, §4

[8] = tested on: mgc4171; experiment: as above; type: cell-based, human; conditions: HepG2 cells, 24 hr exposure, relative value, control group = 1.0, GAPDH internal standard, n=3
Experimental: as §1, §2, §3, §4

[9] = tested on: tagln; experiment: as above; type: cell-based, human; conditions: HepG2 cells, 24 hr exposure, relative value, control group = 1.0, GAPDH internal standard, n=3
Experimental: as §1, §2, §3, §4

[10] = tested on: slc2a3; experiment: as above; type: cell-based, human; conditions: HepG2 cells, 24 hr exposure, relative value, control group = 1.0, GAPDH internal standard, n=3
Experimental: as §1, §2, §3, §4

[11] = tested on: lss; experiment: as above; type: cell-based, human; conditions: HepG2 cells, 24 hr exposure, relative value, control group = 1.0, GAPDH internal standard, n=3
Experimental: as §1, §2, §3, §4

[12] = tested on: serpina3; experiment: as above; type: cell-based, human; conditions: HepG2 cells, 24 hr exposure, relative value, control group = 1.0, GAPDH internal standard, n=3
Experimental: as §1, §2, §3, §4

[13] = tested on: HepG2 cells; experiment: Electron-microscopic examination of PLsis induction potential (myelin-like structure)
From the text: Using 30 kinds of the following commercially available drugs as test compounds, the level of PLsis induction potential was examined with the emergence of an intracellular myelin-like structure or a structure having a high electron density, which is an early image thereof, as an index by electronmicroscopic observation.
HepG2 cells (purchased from ATCC) were exposed to the test compound by a conventional method. HepG2 cells used were of the cell growth phase. The attached HepG2 cells were washed twice with. Dulbecco's phosphate buffered saline (calcium and magnesium salt free; PBS(−))(Dainippon Pharmaceutical Co., Ltd.) containing 0.05 w/v % EDTA, detached with a cell dissociation solution of 0.25 vol % trypsin-1 mmol/L EDTA (Gibco BRL) diluted 2-fold with PBS(−), centrifuged to remove the supernatant, and adjusted to a concentration of 2×10^5 cells/250 μL with a culture medium [Dulbecco's modified Eagle medium (DMEM)(Gibco BRL) supplemented with 50 U/mL penicillin (Gibco BRL)-[…] streptomycin (Gibco BRL) and 5 vol % FBS (Bio whittaker)]. DMSO alone or a culture medium containing the above-mentioned test compound in DMSO solution was dispensed to a well by 250 μL, the above-mentioned cell suspension (250 μL) was added, and cultured in a CO2 incubator (7100; Napco) under an atmosphere of 5% CO2—95% air at 37° C.
After culture for 72 hr, the culture medium was removed, and the cells were fixed with 1 w/v % glutaraldehyde solution. After fixing with 2 w/v % osmic acid for 2 hr by a conventional method and dehydrating with an alcohol series, the cells were embedded in a resin (Quetol 812). Ultrathin slices were prepared and, after electron staining, observed with an electron microscope (H-300; Hitachi) and photographed in 3 or more pictures per each sample (magnification ×5000). The processing after post-fixation was performed by Applied Medical Research.

[14] = tested on: HepG2 cells; experiment: Highest concentration at which cells were viable after 72 hr exposure; type: cell-based, human

SMILES: Clc1ccccc1CNCC1CCC(CNCc2ccccc2Cl)CC1 (centres unmarked) [AY-9944]
- expression variation rate fabp1 [1]: 3.16
- expression variation rate kiaa1001 [2]: 1.68
- expression variation rate nr0b2 [3]: 2.71
- expression variation rate asah1 [4]: 4.71
- expression variation rate flj22362 [5]: 1.45
- expression variation rate hpn [6]: 2.68
- expression variation rate depp [7]: 3.32
- expression variation rate mgc4171 [8]: 1.63
- expression variation rate tagln [9]: 0.21
- expression variation rate slc2a3 [10]: 0.22
- expression variation rate lss [11]: 4.78
- expression variation rate serpina3 [12]: 1.97
- frequency of appearance of myelin-like structure [13]: ++
- addition concentration (highest concentration at which cells survived after 72 hr of culture) [14]: 8.3 µmol/L

SMILES: CC(=O)Nc1ccc(O)cc1 [acetaminophen]
- expression variation rate fabp1 [1]: 1.11
- expression variation rate kiaa1001 [2]: 1.13
- expression variation rate nr0b2 [3]: 0.69
- expression variation rate asah1 [4]: 1.18
- expression variation rate flj22362 [5]: 1.02
- expression variation rate hpn [6]: 1.10
- expression variation rate depp [7]: 0.94
- expression variation rate mgc4171 [8]: 0.75
- expression variation rate tagln [9]: 0.93
- expression variation rate slc2a3 [10]: 1.50
- expression variation rate lss [11]: 0.91
- expression variation rate serpina3 [12]: 0.99
- addition concentration (highest concentration at which cells survived after 72 hr of culture) [14]: 25 µmol/L

SMILES: CCCCc1oc2ccccc2c1C(=O)c1cc(I)c(OCCN(CC)CC)c(I)c1 [amiodarone]
- expression variation rate fabp1 [1]: 2.01
- expression variation rate kiaa1001 [2]: 1.56
- expression variation rate nr0b2 [3]: 1.35
- expression variation rate asah1 [4]: 1.69
- expression variation rate flj22362 [5]: 1.07
- expression variation rate hpn [6]: 2.15
- expression variation rate depp [7]: 1.12
- expression variation rate mgc4171 [8]: 1.32
- expression variation rate tagln [9]: 0.56
- expression variation rate slc2a3 [10]: 0.35
- expression variation rate lss [11]: 1.82
- expression variation rate serpina3 [12]: 1.17
- frequency of appearance of myelin-like structure [13]: ++
- addition concentration (highest concentration at which cells survived after 72 hr of culture) [14]: 8.3 µmol/L

SMILES: CN(C)CCC=C1c2ccccc2CCc2ccccc21 [amitriptyline]
- expression variation rate fabp1 [1]: 2.39
- expression variation rate kiaa1001 [2]: 2.11
- expression variation rate nr0b2 [3]: 1.64
- expression variation rate asah1 [4]: 3.10
- expression variation rate flj22362 [5]: 1.80
- expression variation rate hpn [6]: 2.20
- expression variation rate depp [7]: 5.08
- expression variation rate mgc4171 [8]: 2.22
- expression variation rate tagln [9]: 0.23
- expression variation rate slc2a3 [10]: 0.22
- expression variation rate lss [11]: 1.79
- expression variation rate serpina3 [12]: 3.01
- frequency of appearance of myelin-like structure [13]: +++
- addition concentration (highest concentration at which cells survived after 72 hr of culture) [14]: 25 µmol/L

SMILES: CN1CCN(C(c2ccccc2)c2ccc(Cl)cc2)CC1 (centres unmarked) [chlorcyclizine]
- expression variation rate fabp1 [1]: 2.62
- expression variation rate kiaa1001 [2]: 2.47
- expression variation rate nr0b2 [3]: 2.46
- expression variation rate asah1 [4]: 3.23
- expression variation rate flj22362 [5]: 2.96
- expression variation rate hpn [6]: 2.97
- expression variation rate depp [7]: 3.24
- expression variation rate mgc4171 [8]: 2.43
- expression variation rate tagln [9]: 0.30
- expression variation rate slc2a3 [10]: 0.20
- expression variation rate lss [11]: 2.98
- expression variation rate serpina3 [12]: 2.23
- frequency of appearance of myelin-like structure [13]: +++
- addition concentration (highest concentration at which cells survived after 72 hr of culture) [14]: 25 µmol/L

SMILES: CN(C)CCCN1c2ccccc2Sc2ccc(Cl)cc21 [chlorpromazine]
- expression variation rate fabp1 [1]: 2.56
- expression variation rate kiaa1001 [2]: 1.90
- expression variation rate nr0b2 [3]: 1.20
- expression variation rate asah1 [4]: 1.29
- expression variation rate flj22362 [5]: 1.70
- expression variation rate hpn [6]: 1.70
- expression variation rate depp [7]: 2.95
- expression variation rate mgc4171 [8]: 1.74
- expression variation rate tagln [9]: 0.65
- expression variation rate slc2a3 [10]: 0.43
- expression variation rate lss [11]: 1.99
- expression variation rate serpina3 [12]: 1.94
- frequency of appearance of myelin-like structure [13]: ++
- addition concentration (highest concentration at which cells survived after 72 hr of culture) [14]: 8.3 µmol/L

From patent US20070218460A1, “Method of Estimating Toxicity of Drug” (TAKEDA PHARMACEUTICAL COMPANY LIMITED, priority 2003, published 2007)
